Results as given in ChEMBL document CHEMBL4152259, “Benzoxazinone-containing 3,5-dimethylisoxazole derivatives as BET bromodomain inhibitors for treatment of castration-resistant prostate cancer” (Eur J Med Chem, 2018).
Active and inactive are the calls of the source. The calls are words filed in the database; no cut-off is given here.

Legend:
[1] = Half life in Sprague-Dawley rat at 10 mg/kg, po administered as single dose; assay type: ADME, organism-based; settings: in vivo
Homo sapiens [2] = species on record: Homo sapiens; test: Inhibition of BET bromodomain in human 22Rv1 cells assessed as reduction in ERG mRNA level at 1 uM after 48 hrs by qPCR assay; assay type: cell-based
Homo sapiens [3] = species on record: Homo sapiens; test: Inhibition of BET bromodomain in human 22Rv1 cells assessed as AR-varient protein level at 1 uM after 48 hrs by Western blot assay (reference value: 1); assay type: cell-based
[4] = Oral bioavailability in Sprague-Dawley rat at 10 mg/kg administered as single dose; assay type: ADME, organism-based; settings: in vivo
CWR22R [5] = test: Antimigratory activity against human 22Rv1 cells assessed as inhibition of wound closure at 1 uM after 48 hrs by bright field microscopic method; assay type: functional, cell-based
CWR22R [6] = test: Inhibition of colony formation in human 22Rv1 cells after 14 days by crystal violet staining based assay; assay type: functional, cell-based
[7] = Tmax in Sprague-Dawley rat at 10 mg/kg, po administered as single dose; assay type: ADME, organism-based; settings: in vivo
[8] = Clearance in Sprague-Dawley rat at 2 mg/kg, iv administered as single dose; assay type: ADME, organism-based; settings: in vivo
Homo sapiens [9] = species on record: Homo sapiens; test: Inhibition of BET bromodomain in human 22Rv1 cells assessed as reduction in TMPRSS2 mRNA level at 1 uM after 48 hrs by qPCR assay; assay type: cell-based
Homo sapiens [10] = species on record: Homo sapiens; test: Inhibition of BET bromodomain in human 22Rv1 cells assessed as full length AR protein level at 4 uM after 48 hrs by Western blot assay (reference value: 1); assay type: cell-based
Mus musculus = test: Toxicity in C.B-17/IcrHsd-Prkdc scid mouse xenografted with human 22Rv1 cells assessed as body weight loss at 50 mg/kg, ip administered 5 times per week measured during compound dosing; assay type: organism-based; settings: in vivo
[11] = Tmax in Sprague-Dawley rat at 2 mg/kg, iv administered as single dose; assay type: ADME, organism-based; settings: in vivo
Homo sapiens [12] = species on record: Homo sapiens; test: Inhibition of BET bromodomain in human LNCAP cells assessed as reduction in full length AR mRNA level at 1 uM after 48 hrs by qPCR assay; assay type: cell-based
Homo sapiens [13] = species on record: Homo sapiens; test: Inhibition of BET bromodomain in human LNCAP cells harboring pPSA-Luc/pRenialla-Luc assessed as reduction in PSA mRNA level after 24 hrs by luciferase reporter gene assay; assay type: cell-based
VCaP [14] = test: Inhibition of BET bromodomain in human VCaP cells assessed as reduction in full length AR mRNA level at 1 uM after 48 hrs by qPCR assay; assay type: cell-based
Homo sapiens [15] = species on record: Homo sapiens; test: Inhibition of BET bromodomain in human 22Rv1 cells assessed as AR-varient protein level at 16 uM after 48 hrs by Western blot assay (reference value: 1); assay type: cell-based
Homo sapiens [16] = species on record: Homo sapiens; test: Inhibition of BET bromodomain in human 22Rv1 cells assessed as full length AR protein level at 1 uM after 48 hrs by Western blot assay (reference value: 1); assay type: cell-based
[17] = Cmax in Sprague-Dawley rat at 10 mg/kg, po administered as single dose; assay type: ADME, organism-based; parameters: dose 10 mg/kg, route oral; settings: in vivo
VCaP [18] = test: Inhibition of BET bromodomain in human VCaP cells assessed as reduction in ERG mRNA level at 1 uM after 48 hrs by qPCR assay; assay type: cell-based
LNCaP C4-2B = test: Inhibition of colony formation in human C4-2B cells after 14 days by crystal violet staining based assay; assay type: functional, cell-based
VCaP [19] = test: Inhibition of BET bromodomain in human VCaP cells assessed as reduction in c-Myc mRNA level at 1 uM after 48 hrs by qPCR assay; assay type: cell-based
Homo sapiens [20] = species on record: Homo sapiens; test: Inhibition of BET bromodomain in human LNCAP cells assessed as reduction in ERG mRNA level at 1 uM after 48 hrs by qPCR assay; assay type: cell-based
[21] = Volume of distribution at steady state in Sprague-Dawley rat at 2 mg/kg, iv administered as single dose; assay type: ADME, organism-based; settings: in vivo, read-out: Vdss

Structure (SMILES): Cc1noc(C)c1-c1ccc2c(c1)O[C@H](CC1CC1)C(=O)N2
- half-life [1]: 42 min
- inhibition (Homo sapiens [2]): Active
- fold change (FC) (Homo sapiens [3]): 0.83
- bioavailability [4]: 29.3%
- inhibition (CWR22R [5]): Active
- inhibition (CWR22R [6]): Dose-dependent effect
- Tmax [7]: 30 min
- clearance [8]: 33.9 mL/min/kg
- inhibition (Homo sapiens [9]): Active
- fold change (FC) (Homo sapiens [10]): 0.4
- Activity (Mus musculus): Non-Toxic
- Tmax [11]: 4.8 min
- inhibition (Homo sapiens [12]): Active
- inhibition (Homo sapiens [13]): Dose-dependent effect
- inhibition (VCaP [14]): Active
- fold change (FC) (Homo sapiens [15]): 0.06
- fold change (FC) (Homo sapiens [16]): 0.43
- Cmax [17]: 830 ng/mL
- inhibition (VCaP [18]): Active
- inhibition (LNCaP C4-2B): Dose-dependent effect
- inhibition (VCaP [19]): Active
- inhibition (Homo sapiens [20]): Active
- Vd [21]: 1.6 L/kg
